Laboratory results published in patent publication US20240002470A1, “Method for separation and/or detection and/or in vitro quantification of infectious compounds in biological material” (priority 2020, published 2024).

Key:
binding of β2GPI to LPS = molecular target: T1, binding of β2GPI to LPS (Homo sapiens, UniProt P02749); conditions: cited from earlier work
T1 sequence (P02749 20-345): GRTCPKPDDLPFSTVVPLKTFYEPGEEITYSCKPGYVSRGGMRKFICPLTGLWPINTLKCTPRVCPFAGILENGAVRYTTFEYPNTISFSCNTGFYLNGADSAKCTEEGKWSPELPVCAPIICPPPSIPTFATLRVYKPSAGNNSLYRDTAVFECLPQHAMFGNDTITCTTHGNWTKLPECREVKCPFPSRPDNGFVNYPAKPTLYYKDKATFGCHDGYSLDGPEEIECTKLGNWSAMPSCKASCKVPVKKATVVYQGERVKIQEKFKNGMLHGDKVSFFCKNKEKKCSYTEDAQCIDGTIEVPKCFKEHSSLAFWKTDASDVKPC

S. pyogenes = conditions: cited from earlier work
E. coli = conditions: cited from earlier work
S. aureus = conditions: cited from earlier work
E. coli B6054 [1] = experiment: Capture of E. coli B6054 on magnetic microbeads, culture on TS agar and counting; type: binding, Escherichia coli; conditions: E. coli B6054 colonies from captured beads
C. albicans 1 = experiment: Capture on magnetic microbeads coated with pepβ2GPI: H46 C. albicans 1; type: binding
Protocol: (§1) To test the interaction of microbeads coated with β2GPI and the peptides derived from them, with bacteria present in the blood, 1 ml of blood culture is taken from each sample and placed in a 15 ml tube. 20 μl of microbeads are added and each tube is incubated at 37° C. with horizontal shaking. The tubes are then placed in a magnetic field which retains the microbeads on the wall and the supernatant is removed. The microbeads are then washed twice with sterile PBS, of the same composition as previously indicated; the microbeads are then resuspended in 150 μl of BTS culture medium. Two methods for detecting bacteria captured by microbeads were used: culture on TS agar and PCR For the detection of the bacterial capture by culture, 50 μl of the suspension of microbeads thus obtained are taken and they are spread out in a Petri dish containing TS agar. Petri dishes are incubated in an oven at 37° C. for 24 hours. The bacteria that have grown on the agar were then counted.
(§2) The tested bacteria are: C3 E. coli ATCC 11105, C5 S. aureus ATCC 6538, H61 E. coli B6054, C1: E. coli ATCC 8739, H46: C. albicans 1 and H: 60 SCN
(§3) The same protocol and primers as those described in example 9 were carried out.

[2] = tested on: ISAV virus (Infectious salmon anemia virus); experiment: Capture of ISAV virus on magnetic microbeads coated with pepβ2GPI, RT-PCR quantification; type: binding; conditions: for % compared to β2GPI: ISAV copies captured relative to β2GPI beads; for ISAV copies: virus captured on coated beads from culture supernatant
From the text: The virus used is the ISAV virus (Infectious salmon anemia virus), responsible for anemia in salmon, originating from a culture supernatant.
The microbeads, intended to fix the virus, which are used are magnetic microbeads sold by the company MERCK under the name “Estapor® super-paramagnetic microspheres” which have a diameter between […].
(§4) The pepβ2GPI were grafted onto the microbeads according to the supplier's recommendations. In summary, the microbeads are suspended in phosphate buffer at a pH of 6.0. The beads are then activated, for 15 minutes, in the presence of 1-ethyl-3-(3-Dimethylaminopropyl) carbodiimide and N-hydroxysuccinimide. After washing with HCl, 2 mM, the beads are suspended in a phosphate buffer at a pH of 7.5, containing the pepβ2GPI. The concentration of pepβ2GPI in this coupling buffer is 20 mg/L; the microbeads are incubated in the buffer with gentle and constant shaking at a temperature of 25° C. for 3 hours. The microbeads are then centrifuged at 1,500 rpm and the supernatant is removed; the centrifugation pellet is suspended in the same buffer as that used for the coupling of pepβ2GPI, which forms the suspension of microbeads coated with pepβ2GPI which we want to test.
(§5) One hundred microliters of viral culture supernatant to be studied are placed in an Eppendorf tube with 900 microliters of Tris buffer at a pH of 7.5 and 10 microliters of microbeads. The tubes are shaken horizontally to mix the microbeads well, and each tube is incubated at 37° C. or at room temperature (RT=22° C.) for 30 minutes. In each tube, the microbeads are then separated from the liquid phase by means of a magnet, placed externally against the wall of the tube, and the viral RNA is extracted. The beads are brought into contact with a viral lysis buffer, included in an RNA extraction kit: QIAamp RNA viral kit, sold by QIAGEN and the viral RNA is isolated according to the seller's recommendations.
The RNA is then transcribed into complementary DNA, in the presence of reverse transcriptase, according to the following protocol:
Finally, the complementary DNA (cDNA) is amplified by chain reaction using a polymerase and quantified according to the following protocol: […]

E. coli ATCC 11105 = experiment: Capture on magnetic microbeads coated with pepβ2GPI: C3 E. coli ATCC 11105; type: binding
Protocol: as §1, §2, §3

S. aureus ATCC 6538 = experiment: Capture on magnetic microbeads coated with pepβ2GPI: C5 S. aureus ATCC 6538; type: binding
Protocol: as §1, §2, §3

SCN = experiment: Capture on magnetic microbeads coated with pepβ2GPI: H: 60 SCN; type: binding
Protocol: as §1, §2, §3

[3] = tested on: IPN virus (Infectious pancreatic necrosis virus); experiment: Capture of IPN virus on magnetic microbeads coated with pepβ2GPI, RT-PCR quantification; type: binding; conditions: for % compared to β2GPI: IPN copies captured relative to β2GPI beads; for IPN Copies: virus captured on coated beads from culture supernatant
Protocol: as §4, §5
The virus used is the IPN virus (Infectious pancreatic necrosis virus), responsible for necrosis of the pancreas in salmon, originating from a culture supernatant. The same protocol as described in example 1 was carried out.

E. coli B6054 [4] = experiment: Capture on magnetic microbeads coated with pepβ2GPI: H61 E. coli B6054; type: binding
Protocol: as §1, §2, §3

[5] = tested on: HSV virus (Herpes Simplex virus); experiment: Capture of HSV virus on magnetic microbeads coated with pepβ2GPI; type: binding
Protocol: as §4, §5
(§6) The viruses tested are the HSV virus (Herpes Simplex virus) and the BVDV virus (Bovine viral Diarrhea Virus).
(§7) The same protocol as that described in example 1 was carried out.

[6] = tested on: BVDV virus (Bovine viral Diarrhea Virus); experiment: Capture of BVDV virus on magnetic microbeads coated with pepβ2GPI; type: binding
Protocol: as §4, §5, §6, §7

E. coli ATCC 8739 [7] = experiment: Capture of E. coli ATCC 8739 on magnetic microbeads, culture and counting; type: binding, Escherichia coli; conditions: E. coli ATCC 8739 colonies from captured beads
Protocol: (§8) One ml of the culture of bacteria to be studied is placed in a hemolysis tube. 100 μl of buffer are added, the trade name of which is TTGB, then 20 μl of microbeads. The tube is stirred horizontally, to mix the microbeads well, and incubated at 37° C. or at room temperature (TA=22° C.) for half an hour. At the end of the incubation, the microbeads are separated from the liquid phase by means of a magnet, placed externally against the wall of the tube. The microbeads are then washed twice with LB medium and then resuspended in 1 ml of BTS culture medium (Tripticase-Soy broth) having the following formulation: […]
(§9) This culture medium is brought to a boil and then autoclaved, to make it sterile, before use. 20 μl of the microbead suspension are taken and spread in a Petri dish containing TS agar (Trypticase-Soya agar) having the following formulation: […]
(§10) The Petri dishes are incubated at +37° C. for 24 hours. The bacteria that have grown on the agar are then counted.
The used bacteria were obtained from a collection strain of Escherichia coli (E. coli), ATCC 8739. The same experiment as that described in the previous example was carried out.

[8] = tested on: HCV virus (hepatitis C virus); experiment: Capture of HCV virus from patient plasma on magnetic microbeads coated with pepβ2GPI, RT-PCR quantification; type: binding; conditions: for % compared to β2GPI: HCV copies captured relative to β2GPI beads; for HCV/run copies: per run, virus captured on coated beads from plasma of patients
Protocol: as §4, §5
The virus used is the HCV virus (hepatitis C virus), present in the plasma of patients. The same protocol as described in example 1 was carried out.

E. coli ATCC 8739 [9] = experiment: Capture on magnetic microbeads coated with pepβ2GPI: C1 E. coli ATCC 8739; type: binding
Protocol: as §1, §2, §3

S. aureus, SA 378804 = experiment: Capture of S. aureus SA 378804 on magnetic microbeads, culture and counting; type: binding, Staphylococcus aureus; conditions: S. aureus SA 378804 colonies from captured beads
Protocol: as §8, §9, §10
The used bacterium is a strain of Staphylococcus aureus (S. aureus), SA 378804, isolated from the wound of the foot of a diabetic person, Sotto et al., Diabetes Care (2008) 31 (12), p. 2318-24. The same experiment as that described in the previous example was carried out.

| Substance | % compared to β2GPI (E. coli B6054 [1]) | % compared to β2GPI [2] | ISAV copies [2] | Capture of C3 E. coli ATCC 11105 (E. coli ATCC 11105) | Capture of C5 S. aureus ATCC 6538 (S. aureus ATCC 6538) | % compared to β2GPI [3] | IPN Copies [3] | Capture of H61 E. coli B6054 (E. coli B6054 [4]) | Capture of HSV virus [5] | Capture of BVDV virus [6] | % compared to β2GPI (E. coli ATCC 8739 [7]) | % compared to β2GPI [8] | HCV/run copies [8] | also measured |
| --- | --- | --- | --- | --- | --- | --- | --- | --- | --- | --- | --- | --- | --- | --- |
| LAFWKTDA |  |  |  |  |  |  |  |  |  |  |  |  |  | inhibiting the binding of β2GPI to LPS (binding of β2GPI to LPS): capable of inhibiting the binding of β2GPI to LPS |
| CKNKEKKCS [CNK8] |  |  |  |  |  |  |  |  |  |  |  |  |  | bactericidal effect (S. pyogenes): have a bactericidal effect; bactericidal effect (E. coli): have a bactericidal effect; bactericidal effect (S. aureus): This effect is less |
| H-(SSLAFWK)2-K—NH2 [Peptide P10] | 34% | (105%) | 58 400 copies | 45% | 66% | (67%) | 8 copies | 79% | 119% | 208% | 12% | (87%) | 98 copies | Capture of H46: C. albicans 1 (C. albicans 1): 97.9%; Capture of H: 60 SCN (SCN): 49.0%; Capture of C1: E. coli ATCC 8739 (E. coli ATCC 8739 [9]): 6.17% |
| CKNKEKKCGGSSLAFWK [Peptide P4] | 44% | (110%) | 61 150 copies | 26% | 73% | (100%) | 12 copies | 85% | 357% | 73% | 18% | (73%) | 83 copies | % compared to β2GPI (S. aureus, SA 378804): 79% |
